This passage reports IC50 results from patent US20140179664A1, “Heterocyclyl Pyrimidine Analogues As JAK Inhibitors” (Cellzome Limited, priority 2011, published 2014).

Holding throughout (format): binding
The target in test [1] is T1, JAK1 (Homo sapiens, UniProt P23458).
T1 construct: endogenous in cells; host or cells: Molt4 (ATCC CRL-1582) and Ramos (ATCC CRL-1596), mixed lysate 1:2
The test can be described thus: Kinobeads assay, JAK1. Conditions: mixed Molt4/Ramos lysate, read-out: Inhibition values (IC50) JAK1. How it is done: After the incubation time the beads with captured proteins were separated from the lysate. Bound proteins were then eluted and the presence of JAK1, JAK2, JAK3 and TYK2 was detected and quantified using specific antibodies in a dot blot procedure and the Odyssey infrared detection system. Dose response curves for individual kinases were generated and IC50 values calculated.
(§1) 5×DP buffer: 250 mM Tris-HCl pH 7.4, 25% Glycerol, 7.5 mM MgCl2, 750 mM NaCl, 5 mM Na3VO4; filter the 5×DP buffer through a 0.22 μm filter and store in aliquots at −80° C. The 5×DP buffer is diluted with H2O to 1×DP buffer containing 1 mM DTT and 25 mM NaF.
Stock solutions of test compounds were prepared in DMSO. […] Starting with this solution a 1:3 dilution series (9 steps) was prepared. For control experiments (no test compound) a buffer containing 2% DMSO was used.
Cells were homogenized in a Potter S homogenizer in lysis buffer: 50 mM Tris-HCl, 0.8% NP40, 5% glycerol, 150 mM NaCl, 1.5 mM MgCl2, 25 mM NaF, 1 mM sodium vanadate, 1 mM DTT, pH 7.5. […] The material was dounced 10 times using a mechanized POTTER S, transferred to 50 mL falcon tubes, incubated for 30 minutes on ice and spun down for 10 minutes at 20,000 g at 4° C. (10,000 rpm in Sorvall SLA600, precooled). […] (33.500 rpm in Ti50.2, precooled). The supernatant was transferred again to a fresh 50 mL falcon tube, the protein concentration was determined by a Bradford assay (BioRad) and samples containing 50 mg of protein per aliquot were prepared. The samples were immediately used for experiments or frozen in liquid nitrogen and stored frozen at −80° C.
Cell lysate (approximately 50 mg protein per plate) was thawed in a water bath at room temperature and then stored on ice. […] The diluted cell lysate was stored on ice. Mixed Molt4/Ramos lysate was prepared by combining one volume of Molt4 lysate and two volumes of Ramos lysate (ratio 1:2).
Plates were sealed and incubated for 3 hours in a cold room on a plate shaker (Heidolph tiramax 1000) at 750 rpm. Afterwards the plate was washed 3 times with 230 μL washing buffer (1×DP 0.4% NP40). […] The eluate was frozen quickly at −80° C. and stored at −20° C.
Afterwards the membrane was washed twice for 10 minutes with PBS buffer containing 0.2% Tween 20 at room temperature. […] Afterwards the membrane was washed twice for 10 minutes each with 1×PBS buffer containing 0.2% Tween 20 at room temperature. Then the membrane was rinsed once with PBS buffer to remove residual Tween 20. The membrane was kept in PBS buffer at 4° C. and then scanned with the Odyssey instrument. Fluorescence signals were recorded and analysed according to the instructions of the manufacturer.

Test [2] has as its target T2, JAK2 (Homo sapiens, UniProt O60674).
T2 construct: endogenous in cells; host or cells: Molt4 (ATCC CRL-1582) and Ramos (ATCC CRL-1596), mixed lysate 1:2
Put plainly: Kinobeads assay, JAK2. Conditions: mixed Molt4/Ramos lysate, read-out: Inhibition values (IC50) JAK2. The method, then:
(§2) The compounds of the present invention as described in the previous examples were tested in a Kinobeads™ assay as described for ZAP-70 (WO-A 2007/137867). Briefly, test compounds (at various concentrations) and the affinity matrix with the immobilized aminopyrido-pyrimidine ligand 24 were added to cell lysate aliquots and allowed to bind to the proteins in the lysate sample. After the incubation time the beads with captured proteins were separated from the lysate. Bound proteins were then eluted and the presence of JAK1, JAK2, JAK3 and TYK2 was detected and quantified using specific antibodies in a dot blot procedure and the Odyssey infrared detection system. Dose response curves for individual kinases were generated and IC50 values calculated. Kinobeads™ assays for ZAP-70 (WO-A 2007/137867) and for kinase selectivity profiling (WO-A 2006/134056) have been previously described.
(§3) The affinity matrix was washed two times with 15 mL of lx DP buffer containing 0.2% NP40 (IGEPAL® CA-630, Sigma, #13021) and then resuspended in 1×DP buffer containing 0.2% NP40 (3% beads slurry).
as §1
(§4) Stock solutions of test compounds were prepared in DMSO. In a 96 well plate […] solution of diluted test compounds at 5 mM in DMSO were prepared. Starting with this solution a 1:3 dilution series (9 steps) was prepared. For control experiments (no test compound) a buffer containing 2% DMSO was used.
(§5) Molt4 cells (ATCC catalogue number CRL-1582) and Ramos cells (ATCC catalogue number CRL-1596) were grown in 1 L Spinner flasks (Integra Biosciences, #182101) in suspension in RPMI 1640 medium (Invitrogen, #21875-034) supplemented with 10% Fetal Bovine Serum (Invitrogen) at a density between 0.15×10^6 and 1.2×10^6 cells/mL. Cells were harvested by centrifugation, washed once with 1×PBS buffer (Invitrogen, #14190-094) and cell pellets were frozen in liquid nitrogen and subsequently stored at −80° C. Cells were homogenized in a Potter S homogenizer in lysis buffer: 50 mM Tris-HCl, 0.8% NP40, 5% glycerol, 150 mM NaCl, 1.5 mM MgCl2, 25 mM NaF, 1 mM sodium vanadate, 1 mM DTT, pH 7.5. One complete EDTA-free tablet (protease inhibitor cocktail, Roche Diagnostics, 1873580) per 25 mL buffer was added. The material was dounced 10 times using a mechanized POTTER S, transferred to 50 mL falcon tubes, incubated for 30 minutes on ice and spun down for 10 minutes at 20,000 g at 4° C. (10,000 rpm in Sorvall SLA600, precooled). The supernatant was transferred to an ultracentrifuge (UZ)-polycarbonate tube (Beckmann, 355654) and spun for 1 hour at 100.000 g at 4° C. (33.500 rpm in Ti50.2, precooled). The supernatant was transferred again to a fresh 50 mL falcon tube, the protein concentration was determined by a Bradford assay (BioRad) and samples containing 50 mg of protein per aliquot were prepared. The samples were immediately used for experiments or frozen in liquid nitrogen and stored frozen at −80° C.
(§6) Cell lysate (approximately 50 mg protein per plate) was thawed in a water bath at room temperature and then stored on ice. To the thawed cell lysate 1×DP 0.8% NP40 buffer containing protease inhibitors (1 tablet for 25 mL buffer; EDTA-free protease inhibitor cocktail; Roche Diagnostics 1873580) was added in order to reach a final protein concentration of 10 mg/mL total protein. The diluted cell lysate was stored on ice. Mixed Molt4/Ramos lysate was prepared by combining one volume of Molt4 lysate and two volumes of Ramos lysate (ratio 1:2).
(§7) To a 96 well filter plate (Multiscreen HTS, BV Filter Plates, Millipore #MSBVN1250) were added per well: 100 μL affinity matrix (3% beads slurry), […], of compound solution, and 50 μL of diluted lysate. […]

Test [3] has as its target T3, TYK2 (Homo sapiens, UniProt P29597).
T3 construct: endogenous in cells; host or cells: Molt4 (ATCC CRL-1582) and Ramos (ATCC CRL-1596), mixed lysate 1:2
The test can be described thus: Kinobeads assay, TYK2. Conditions: mixed Molt4/Ramos lysate, read-out: Inhibition values (IC50) TYK2. The method, then:
as §2, §3, §1, §4, §5, §6, §7

T3 sequence (P29597 whole entry): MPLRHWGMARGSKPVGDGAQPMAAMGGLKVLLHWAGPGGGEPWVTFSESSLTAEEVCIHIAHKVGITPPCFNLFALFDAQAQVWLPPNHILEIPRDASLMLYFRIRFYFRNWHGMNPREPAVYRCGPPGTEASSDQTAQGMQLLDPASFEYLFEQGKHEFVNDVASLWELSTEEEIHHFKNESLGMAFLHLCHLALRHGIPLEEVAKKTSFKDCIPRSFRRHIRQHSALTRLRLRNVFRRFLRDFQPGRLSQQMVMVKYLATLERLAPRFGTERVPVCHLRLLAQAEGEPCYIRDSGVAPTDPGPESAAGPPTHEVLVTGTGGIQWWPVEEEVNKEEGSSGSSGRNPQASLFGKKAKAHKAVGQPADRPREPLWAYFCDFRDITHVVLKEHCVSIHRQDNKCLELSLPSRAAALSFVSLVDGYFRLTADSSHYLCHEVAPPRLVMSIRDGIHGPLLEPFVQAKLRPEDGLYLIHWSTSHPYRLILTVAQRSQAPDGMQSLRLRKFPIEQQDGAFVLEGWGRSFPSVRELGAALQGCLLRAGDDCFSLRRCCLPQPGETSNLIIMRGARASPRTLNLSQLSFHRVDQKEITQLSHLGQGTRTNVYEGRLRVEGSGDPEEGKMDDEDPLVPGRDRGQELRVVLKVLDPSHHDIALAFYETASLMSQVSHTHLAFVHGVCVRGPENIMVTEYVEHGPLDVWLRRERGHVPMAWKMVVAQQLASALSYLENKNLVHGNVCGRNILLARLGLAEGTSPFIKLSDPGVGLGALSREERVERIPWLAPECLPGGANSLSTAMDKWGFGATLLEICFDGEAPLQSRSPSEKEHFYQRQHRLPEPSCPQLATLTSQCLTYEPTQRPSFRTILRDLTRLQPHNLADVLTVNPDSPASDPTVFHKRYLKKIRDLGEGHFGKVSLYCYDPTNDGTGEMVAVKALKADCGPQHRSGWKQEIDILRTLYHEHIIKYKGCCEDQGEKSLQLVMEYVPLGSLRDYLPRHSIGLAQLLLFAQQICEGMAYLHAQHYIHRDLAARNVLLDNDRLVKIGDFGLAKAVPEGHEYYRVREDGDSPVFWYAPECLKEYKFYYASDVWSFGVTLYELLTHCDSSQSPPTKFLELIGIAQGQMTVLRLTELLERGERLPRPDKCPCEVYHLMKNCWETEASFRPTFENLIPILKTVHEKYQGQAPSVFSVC
T2 sequence (O60674 whole entry): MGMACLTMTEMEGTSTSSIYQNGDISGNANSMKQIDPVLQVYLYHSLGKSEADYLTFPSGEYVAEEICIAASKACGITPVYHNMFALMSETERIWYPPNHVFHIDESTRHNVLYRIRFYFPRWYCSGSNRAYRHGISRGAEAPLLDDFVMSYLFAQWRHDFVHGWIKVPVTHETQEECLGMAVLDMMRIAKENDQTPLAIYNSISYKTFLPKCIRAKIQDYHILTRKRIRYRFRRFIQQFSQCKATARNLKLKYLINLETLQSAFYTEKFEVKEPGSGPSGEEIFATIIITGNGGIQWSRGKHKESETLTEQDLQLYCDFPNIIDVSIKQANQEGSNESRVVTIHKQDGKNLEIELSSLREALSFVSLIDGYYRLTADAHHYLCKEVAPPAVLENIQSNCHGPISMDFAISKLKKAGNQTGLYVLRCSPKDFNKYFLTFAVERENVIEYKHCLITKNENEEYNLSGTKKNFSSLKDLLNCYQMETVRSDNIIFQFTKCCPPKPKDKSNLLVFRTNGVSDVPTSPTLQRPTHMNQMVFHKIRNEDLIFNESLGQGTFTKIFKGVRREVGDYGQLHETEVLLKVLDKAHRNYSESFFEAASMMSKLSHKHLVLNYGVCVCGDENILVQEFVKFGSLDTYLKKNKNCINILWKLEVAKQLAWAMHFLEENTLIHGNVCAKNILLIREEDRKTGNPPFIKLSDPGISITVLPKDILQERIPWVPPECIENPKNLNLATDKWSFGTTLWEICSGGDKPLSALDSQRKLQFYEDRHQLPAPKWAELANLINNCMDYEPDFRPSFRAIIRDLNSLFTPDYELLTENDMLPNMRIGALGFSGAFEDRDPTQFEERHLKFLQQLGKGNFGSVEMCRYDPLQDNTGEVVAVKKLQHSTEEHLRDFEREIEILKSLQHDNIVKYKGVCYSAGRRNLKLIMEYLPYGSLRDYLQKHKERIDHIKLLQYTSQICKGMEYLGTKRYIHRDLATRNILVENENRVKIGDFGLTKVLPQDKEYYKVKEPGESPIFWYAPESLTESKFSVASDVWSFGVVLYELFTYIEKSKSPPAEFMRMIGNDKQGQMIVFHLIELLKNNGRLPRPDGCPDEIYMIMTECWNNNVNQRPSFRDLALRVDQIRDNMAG
T1 sequence (P23458 whole entry): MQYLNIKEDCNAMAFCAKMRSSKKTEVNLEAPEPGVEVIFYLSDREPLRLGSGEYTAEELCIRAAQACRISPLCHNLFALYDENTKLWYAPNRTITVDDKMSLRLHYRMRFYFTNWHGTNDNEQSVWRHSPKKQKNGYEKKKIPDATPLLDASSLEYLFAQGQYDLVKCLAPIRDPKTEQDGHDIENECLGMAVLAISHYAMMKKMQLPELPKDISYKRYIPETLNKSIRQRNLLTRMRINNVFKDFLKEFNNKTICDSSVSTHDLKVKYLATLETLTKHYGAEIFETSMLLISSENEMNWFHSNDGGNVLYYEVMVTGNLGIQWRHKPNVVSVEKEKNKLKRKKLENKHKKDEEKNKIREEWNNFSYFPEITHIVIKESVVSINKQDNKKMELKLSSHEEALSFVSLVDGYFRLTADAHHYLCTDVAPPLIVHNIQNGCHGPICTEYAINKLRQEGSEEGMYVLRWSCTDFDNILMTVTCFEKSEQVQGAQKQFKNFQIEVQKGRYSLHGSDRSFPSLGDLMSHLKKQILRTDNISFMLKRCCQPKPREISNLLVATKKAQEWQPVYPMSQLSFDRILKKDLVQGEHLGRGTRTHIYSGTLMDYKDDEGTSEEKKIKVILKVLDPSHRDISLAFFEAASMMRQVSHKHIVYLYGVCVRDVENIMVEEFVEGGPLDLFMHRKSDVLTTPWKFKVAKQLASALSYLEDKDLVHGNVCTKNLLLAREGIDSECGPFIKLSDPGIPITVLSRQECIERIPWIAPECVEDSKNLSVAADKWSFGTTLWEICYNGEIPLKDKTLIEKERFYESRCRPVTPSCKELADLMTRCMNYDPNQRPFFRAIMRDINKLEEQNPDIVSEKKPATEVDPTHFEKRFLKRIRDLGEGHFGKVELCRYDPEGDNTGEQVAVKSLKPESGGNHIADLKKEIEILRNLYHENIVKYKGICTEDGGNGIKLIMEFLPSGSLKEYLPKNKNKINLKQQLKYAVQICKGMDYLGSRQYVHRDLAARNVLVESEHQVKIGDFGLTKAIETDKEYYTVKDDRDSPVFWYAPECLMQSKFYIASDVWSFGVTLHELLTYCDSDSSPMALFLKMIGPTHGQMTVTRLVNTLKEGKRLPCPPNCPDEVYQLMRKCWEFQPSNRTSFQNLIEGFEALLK

As for `NC(=O)Cn1cc(Nc2ncc(Cl)c(NC(CO)c3cc(F)ccc3F)n2)cn1` (stereo not drawn) [Compound 132], the values for the IC50 in test [1], in test [2] and in test [3] were less than 100 nM, 100 to 1000 nM and 100 to 1000 nM, respectively.

Take `CNC(=O)Cn1cc(Nc2ncc(C)c(N[C@H](CO)c3ccccc3)n2)cn1` [Compound 133]: the IC50 in test [1], in test [2] and in test [3] was 1000 to 10000 nM in each case.

`Cc1cnc(Nc2cnn(CC(=O)N(C)C)c2)nc1N[C@H](CO)c1ccccc1` [Compound 134]: the 50% inhibitory concentration (IC50) (as a rule, the point on the concentration scale where inhibition reaches its midpoint) in test [1] is 100 to 1000 nM; in test [2], 1000 to 10000 nM; in test [3] it was 1000 to 10000 nM.

In the case of `CN1CCC(n2cc(Nc3ncc(Cl)c(N[C@H](CO)c4ccccc4)n3)cn2)C1=O` (stereo partly drawn) [Compound 135], the values for the IC50 in test [1], in test [2] and in test [3] were 100 to 1000 nM, 1000 to 10000 nM and 1000 to 10000 nM, respectively.

Regarding `Cn1cc(Nc2ncc(Cl)c(N[C@H](CO)c3cccc(-c4cnn(C)c4)c3)n2)cn1` [Compound 136], the IC50 was greater than 10000 nM in test [1], no less than 10000 nM in test [2] and no less than 10000 nM in test [3].

As for `Cn1cc(Nc2ncc(Cl)c(N[C@H](CO)c3cc(F)cc(-c4cnn(C)c4)c3)n2)cn1` [Compound 137], the IC50 in test [1], in test [2] and in test [3] was 1000 to 10000 nM in each case.

As for `Cn1cc(Nc2ncc(Cl)c(N[C@H](CO)c3cccc(N4CCOCC4=O)c3)n2)cn1` [Compound 138], the IC50 in test [1] was 1000 to 10000 nM; in test [2] it was no less than 10000 nM; in test [3], 1000 to 10000 nM.

For `Cn1cc(Nc2ncc(Cl)c(N[C@H](CO)c3cc(F)ccc3F)n2)cn1` [Compound 139], the IC50 in test [1], in test [2] and in test [3] was 100 to 1000 nM in each case.

Turning to `NC(=O)Cn1cc(Nc2ncc(Cl)c(N[C@H](CO)c3cc(F)ccc3F)n2)cn1` [Compound 140], the values for the IC50 in test [1], in test [2] and in test [3] were less than 100 nM, 100 to 1000 nM and 100 to 1000 nM, respectively.

`CNC(=O)Cn1cc(Nc2ncc(Cl)c(N[C@H](CO)c3cc(F)ccc3F)n2)cn1` [Compound 141]: the IC50 in test [1] was less than 100 nM; in test [2], 100 to 1000 nM; in test [3] it was 100 to 1000 nM.

With `Cn1cc(Nc2ncc(Cl)c(N[C@H](CO)c3cc(F)cc(F)c3)n2)cn1` [Compound 142], the results for the IC50 in test [1], in test [2] and in test [3] were 100 to 1000 nM, 100 to 1000 nM and 1000 to 10000 nM, respectively.

In the case of `OCCn1cc(Nc2ncc(Cl)c(N[C@H](CO)c3cc(F)cc(F)c3)n2)cn1` [Compound 143], the IC50 in test [1] is less than 100 nM; in test [2], 100 to 1000 nM; in test [3], 100 to 1000 nM.

`NC(=O)Cn1cc(Nc2ncc(Cl)c(N[C@H](CO)c3cc(F)cc(F)c3)n2)cn1` [Compound 144]: the IC50 in test [1] was less than 100 nM; in test [2], 100 to 1000 nM; in test [3], 100 to 1000 nM.

Turning to `CNC(=O)Cn1cc(Nc2ncc(Cl)c(N[C@H](CO)c3cc(F)cc(F)c3)n2)cn1` [Compound 145], the 50% inhibitory concentration (IC50) in test [1] was less than 100 nM; in test [2], 100 to 1000 nM; in test [3] it was 100 to 1000 nM.

As to `Cn1cc(Nc2ncc(F)c(N[C@H](CO)c3cc(F)ccc3F)n2)cn1` [Compound 146], the IC50 in test [1] lay in the range of 100 to 1000 nM; in test [2], 1000 to 10000 nM; in test [3], 100 to 1000 nM.

`OCCn1cc(Nc2ncc(F)c(N[C@H](CO)c3cc(F)ccc3F)n2)cn1` [Compound 147]: the IC50 in test [1], in test [2] and in test [3] was 100 to 1000 nM throughout.

`CNC(=O)Cn1cc(Nc2ncc(F)c(N[C@H](CO)c3cc(F)ccc3F)n2)cn1` [Compound 148]: the results for the IC50 in test [1], in test [2] and in test [3] were 100 to 1000 nM, 1000 to 10000 nM and 100 to 1000 nM, respectively.

As to `Cc1cnc(Nc2cnn(C)c2)nc1N[C@H](CO)c1cccc(-c2cnn(C)c2)c1` [Compound 149], the IC50 in test [1] is greater than 10000 nM; in test [2], no less than 10000 nM; in test [3], no less than 10000 nM.

Regarding `Cn1cc(Nc2ncc(F)c(N[C@H](CO)c3cc(F)cc(-c4cnn(C)c4)c3)n2)cn1` [Compound 150], the results for the IC50 in test [1], in test [2] and in test [3] were 1000 to 10000 nM, no less than 10000 nM and no less than 10000 nM, respectively.

`Cn1cc(-c2cccc([C@@H](CO)Nc3nc(Nc4cnn(CCO)c4)ncc3Cl)c2)cn1` [Compound 151]: the IC50 in test [1] is 1000 to 10000 nM; in test [2], no less than 10000 nM; in test [3], no less than 10000 nM.

Regarding `Cn1cc(-c2cc(F)cc([C@@H](CO)Nc3nc(Nc4cnn(CCO)c4)ncc3Cl)c2)cn1` [Compound 152], the IC50 in test [1] was in the range of 100 to 1000 nM; in test [2], 1000 to 10000 nM; in test [3] it was 1000 to 10000 nM.

For the compound `Cn1cc(-c2cc(F)cc([C@@H](CO)Nc3nc(Nc4cnn(CCO)c4)ncc3F)c2)cn1` [Compound 153], the IC50 is 1000 to 10000 nM in test [1], no less than 10000 nM in test [2] and no less than 10000 nM in test [3].

In the case of `CNC(=O)Cn1cc(Nc2ncc(Cl)c(N[C@H](CO)c3cccc(-c4cnn(C)c4)c3)n2)cn1` [Compound 154], the IC50 in test [1] was in the range of 1000 to 10000 nM; in test [2], 1000 to 10000 nM; in test [3] it was 100 to 1000 nM.

As to `CNC(=O)Cn1cc(Nc2ncc(F)c(N[C@H](CO)c3cccc(-c4cnn(C)c4)c3)n2)cn1` [Compound 155], the results for the IC50 in test [1], in test [2] and in test [3] were greater than 10000 nM, no less than 10000 nM and no less than 10000 nM, respectively.

Turning to `CNC(=O)Cn1cc(Nc2ncc(Cl)c(N[C@H](CO)c3cc(F)cc(-c4cnn(C)c4)c3)n2)cn1` [Compound 156], the figures for the IC50 in test [1], in test [2] and in test [3] were 1000 to 10000 nM, 1000 to 10000 nM and no less than 10000 nM, respectively.
